Test results taken from PMC9598407, “Identification of Staphylococcus aureus Penicillin Binding Protein 4 (PBP4) Inhibitors” (Antibiotics, 2022).
Converted amounts (≈) assume the structure as drawn.

Columns and labels:
[1] = system: S. aureus USA300; assay: Minimum inhibitory concentration (MIC) testing, strain USA300; type: cell-based, Staphylococcus aureus; conditions: for MIC: Staphylococcus aureus, USA300, read-out: Minimum inhibitory concentration; for Fold increase in resistance provided by PBP4: USA300 versus USA300∆pbp4 MIC; for Minimum inhibitory concentration: strain USA300
Protocol: (§1) The approach used was to initially search for compounds that reverse the antibiotic resistance profile of wild type cells to that of a pbp4 mutant. To define screening conditions three strains were employed, a wild type USA300 MRSA strain, an isogenic pbp4 deletion strain, and a complemented strain harboring a plasmid wildtype pbp4 copy. The antibiotic susceptibility profile of each strain was measured to determine the magnitude with which PBP4 affects resistance to various antibiotics (Table 1). […]. We anticipated that the greater dynamic range of the latter could provide a means to reliably screen for agents that inhibit PBP4 function. […].
(§2) S. aureus strain USA300 is a predominant cause of U.S. community-associated MRSA infections, whereas strain COL is a commonly studied hospital-associated MRSA strain. The S. aureus USA300 pbp4-null strain (USA300Δpbp4) and PBP4 complementation strain (USA300∆pbp4 pPBP4) have been previously described. Strain COLn is a laboratory derived tetracycline susceptible derivative of COL, whereas COLnex is a methicillin susceptible COLn derivative that has been cured of SCCmec thereby removing the mecA, which encodes PBP2a, and has been previously described. Strain CRB is a well-studied MRSA COLnex derivative that contains two amino acid substitutions (E183A and F241R) near the PBP4 active site and a 36-bp duplication 290-bp upstream of the pbp4 open reading frame leading to 20–40-fold overexpression of the gene. All strains were grown in Mueller Hinton (MH) broth at 37 °C, as indicated. Penicillin, streptomycin, ciprofloxacin, mupirocin, meropenem, and mitomycin C were purchased from Fisher Scientific (Waltham, MA, USA), whereas ceftobiprole was obtained from MedChemExpress LLC (Monmouth Junction, NJ, USA). The 30,000-member […]-EXP small molecule chemical library (Blocks 3–5) used in these studies was purchased from ChemBridge Corporation (San Diego, CA, USA).

[2] = system: S. aureus CRB∆pbp4; assay: MIC testing, strain CRB∆pbp4; type: cell-based; conditions: Staphylococcus aureus, read-out: Minimum inhibitory concentration
Protocol: (§3) To further evaluate their potential PBP4 inhibitor activity, prioritized compounds were tested for their ability to reverse PBP4 mediated antibiotic resistance in another S. aureus background using three isogenic strains that became available during our study (generous gift from Dr. S. Chatterjee; University of Maryland). These strains included: (1) COLnex, which is a methicillin susceptible strain, (2) CRB, a methicillin/ceftobiprole-resistant strain of COLnex that overproduces PBP4, and (3) CRB∆pbp4, a methicillin susceptible strain of CRB lacking the pbp4 gene.
as §2

[3] = system: S. aureus COLnex; assay: MIC testing, strain COLnex; type: cell-based; conditions: Staphylococcus aureus, read-out: Minimum inhibitory concentration
Protocol: as §3, §2

[4] = system: S. aureus CRB; assay: MIC testing, strain CRB (PBP4 overproducer); type: cell-based, Staphylococcus aureus; conditions: for MIC: Staphylococcus aureus, read-out: Minimum inhibitory concentration, strain CRB
Protocol: as §3, §2

[5] = system: S. aureus USA300∆pbp4; assay: MIC testing, strain USA300∆pbp4; type: cell-based, Staphylococcus aureus; conditions: for MIC: Staphylococcus aureus, USA300, read-out: Minimum inhibitory concentration
Protocol: as §1, §2

[6] = system: S. aureus USA300∆pbp4 pPBP4; assay: microbe, parasite or virus in culture; type: cell-based; conditions: Staphylococcus aureus, USA300, read-out: Minimum inhibitory concentration
[7] = biological target: recombinant PBP4 (Bacillus subtilis, UniProt P40750); assay: Gel electrophoresis BOCILLIN FL labeling of PBP4; type: binding; conditions: for Effect of preincubation on PBP4 BOCILLIN FL labeling (gel-based): 50-5000 µM, kanamycin 2000 µM or 5000 µM; for PBP4 BOCILLIN FL binding inhibition (gel-based) at low concentration: concentrations below 50 µM
Protocol: A second, yet lower resolution, approach was used to verify the impact of 9314848 on PBP4 substrate binding in which the protein was preincubated with compound or control antibiotics then labeled with the BOCILLIN FL and resulting fluorescent labeled protein was visualized following gel electrophoresis.
(§4) The ability of putative PBP4 inhibitors to impact the active site of recombinant PBP4 was assessed using two previously established BOCILLIN-FL Penicillin (Penicillin V conjugated to BODIPY fluorescent dye) binding assays. First, fluorescence polarization assays were performed as previously described, but with minor modifications. Briefly, the indicated amount of the putative PBP4 inhibitor or control antibiotic was incubated with 1 µM recombinant B. subtilis PBP4 or S. aureus PBP2a in potassium phosphate buffer (40 mM K2HPO4 and 10 mM KH2PO4) for 1 h in black 96-well microtiter plates (Corning Life Sciences, Corning, NY, USA). Following incubation, 1 µM (final concentration) BOCILLIN FL penicillin was added, and the mixture was incubated for 30 min. BOCILLIN FL fluorescence polarization was measured at (495 nm excitation and 545 nm emission) in a SpectraMax M5 multimode plate reader (Molecular Devices, San Jose, CA, USA). All assays were repeated at least 8 times, averaged, and values falling outside of 2 standard deviations were considered outliers. The resulting data were plotted as percentage BOCILLIN FL binding inhibition = (T/U) × 100; T = FL polarization of ((PBP4+ BOCILLIN FL) − (PBP4+ BOCILLIN FL + inhibitor compound)), U = FL polarization of ((PBP4 + BOCILLIN FL) − (BOCILLIN FL)). Second, gel electrophoresis and fluorescence detection was used to measure BOCILLIN FL labeling of PBP4 treated with the known PBP4 inhibitor cefoxitin (positive control), kanamycin (negative control) or 9314848 (test compound), as previously described but with minor modifications. Briefly, 1 µM of recombinant PBP4 was mixed with 0, 50, 500, 2000, or 5000 µM 9314848 or control antibiotic in 50 mM phosphate buffer (pH 7.4) and incubated at 37 °C for 30 min. Next 40 μM of BOCILLIN FL was added to the reaction mixture and incubated for an additional 30 min at 37 °C. Reactions were stopped by adding 5× SDS-PAGE gel loading dye, heated at 100 °C for 3 min and separated by electrophoresis in 12% SDS-PAGE (2 h, 120 Volts). BOCILLIN FL labeled PBP4 was imaged at λ = 365 nm using a BioRad Gel Doc EZ Imaging system and the gel was then subsequently stained with Bio-safe Coomassie Brilliant Blue stain (BioRad, Hercules, CA, USA) to measure the amount of protein present in each reaction condition and analyzed using NIH-ImageJ software. The percent BOCILLIN FL binding was calculated by first normalizing the protein present in each reaction condition to that of untreated control and subsequently applying each reaction’s protein normalization factor to each reaction’s fluorescent signal. The percentage BOCILLIN FL binding inhibition was then calculated as the normalized band intensity of antibiotic/compound treated sample as compared to the control sample (PBP4 + BOCILLIN FL in the absence of compound).

[8] = biological target: recombinant Bacillus subtilis PBP4 (Bacillus subtilis, UniProt P40750); assay: BOCILLIN FL fluorescence polarization displacement assay, PBP4; type: binding; conditions: for Effect of preincubation on BOCILLIN FL binding to PBP4 (fluorescence polarization): 50 µM, 1 µM PBP4
Protocol: To more directly evaluate whether 9314848 is likely to affect PBP4 function, the compound’s ability to bind recombinant PBP4 was measured using BOCILLIN FL fluorescence polarization displacement assays. The premise for the assay is that the fluorescence polarization of the fluorescently labeled β-lactam, penicillin V (BOCILLIN FL), will increase upon binding to its cognate target (i.e., PBP4). Further, compounds that bind PBP4 and inhibit its function would impede BOCILLIN FL binding thereby allowing us to assess the protein binding affinity of 9314848 using a simple fluorescence reduction assay.
To determine whether the assay is amenable to measuring the binding properties of a compound that is known to bind PBP4 vs. a compound that is not expected to bind the protein we performed fluorescence polarization assays in which PBP4 was preincubated with either the β-lactam ampicillin, or the aminoglycoside kanamycin.
A dose response study was conducted (Figure 4B) in which PBP4 was preincubated with 0, 3.125, 6.25, 12.5, 25, or 50 µM of ampicillin, kanamycin, or 9314848.
as §4, with “First,” for “The ability of putative PBP4 inhibitors to impact the active site of recombinant PBP4 was assessed using two previously established BOCILLIN-FL Penicillin (Penicillin V conjugated to BODIPY fluorescent dye) binding assays. First,”, “All assays were repeated at least 8 times, averaged, and values falling outside of 2 standard deviations were considered outliers.” left out

Sequence of recombinant PBP4 (P40750 22-624): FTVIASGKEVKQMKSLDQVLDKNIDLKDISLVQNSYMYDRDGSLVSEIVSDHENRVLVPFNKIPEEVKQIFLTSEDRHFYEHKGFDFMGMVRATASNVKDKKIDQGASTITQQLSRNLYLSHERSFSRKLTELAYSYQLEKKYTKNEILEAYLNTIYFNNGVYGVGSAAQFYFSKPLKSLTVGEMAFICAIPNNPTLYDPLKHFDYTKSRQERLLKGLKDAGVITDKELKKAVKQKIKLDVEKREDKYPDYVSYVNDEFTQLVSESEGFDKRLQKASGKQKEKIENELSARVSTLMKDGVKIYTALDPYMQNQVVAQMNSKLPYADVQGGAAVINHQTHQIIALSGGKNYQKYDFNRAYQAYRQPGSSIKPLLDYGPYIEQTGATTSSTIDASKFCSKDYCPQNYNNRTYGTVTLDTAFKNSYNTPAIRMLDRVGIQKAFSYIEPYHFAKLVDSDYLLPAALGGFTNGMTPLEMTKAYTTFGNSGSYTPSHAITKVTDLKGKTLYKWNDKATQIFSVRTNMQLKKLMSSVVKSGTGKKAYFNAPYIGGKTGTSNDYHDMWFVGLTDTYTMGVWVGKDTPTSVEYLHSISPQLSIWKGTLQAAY
Sequence of recombinant Bacillus subtilis PBP4 (P40750 22-624): as above

Row | Molecule | MIC [1] | Fold increase in resistance provided by PBP4 [1] | Minimum inhibitory concentration [1] | MIC [2] | MIC [3] | MIC [4] | MIC [5] | Minimum inhibitory concentration ([5]; strain USA300∆pbp4) | MIC [6] | Effect of preincubation on PBP4 BOCILLIN FL labeling (gel-based) [7] | PBP4 BOCILLIN FL binding inhibition (gel-based) at low concentration [7] | Effect of preincubation on BOCILLIN FL binding to PBP4 (fluorescence polarization) [8] | PBP4 BOCILLIN FL binding inhibition, dose response ([8]; 0, 3.125, 6.25, 12.5, 25, or 50 µM) | Minimum inhibitory concentration ([4]; strain CRB)
1 | O=C(O)c1cn(C2CC2)c2cc(N3CCNCC3)c(F)cc2c1=O [CIP, ciprofloxacin] | 4 mg/L (≈ 12.1 µM) | ~ 4 fold | 4 mg/L (≈ 12.1 µM) | 0.25 mg/L (≈ 0.754 µM) | 0.25 mg/L (≈ 0.754 µM) | 0.5 mg/L (≈ 1.51 µM) | 1 mg/L (≈ 3.02 µM) | 1 mg/L (≈ 3.02 µM) |  |  |  |  |  | 
2 | C[C@H]1COc2c(N3CCN(C)CC3)c(F)cc3c(=O)c(C(=O)O)cn1c23 [LEV, levofloxacin] | 1 mg/L (≈ 2.77 µM) |  |  | 0.25 mg/L (≈ 0.692 µM) | 0.25 mg/L (≈ 0.692 µM) | 0.5 mg/L (≈ 1.38 µM) | 0.5 mg/L (≈ 1.38 µM) |  | 1 mg/L (≈ 2.77 µM) |  |  |  |  | 
3 | C[C@@H](O)[C@H]1C(=O)N2C(C(=O)O)=C(S[C@@H]3CN[C@H](C(=O)N(C)C)C3)[C@H](C)[C@H]12 [MER, meropenem] | 4 mg/L (≈ 10.4 µM) | 2 fold | 4 mg/L (≈ 10.4 µM) | 1 mg/L (≈ 2.61 µM) | 1 mg/L (≈ 2.61 µM) | 64 mg/L (≈ 167 µM) | 2 mg/L (≈ 5.22 µM) |  | 4 mg/L (≈ 10.4 µM) |  |  |  |  | 
4 | CN(C)c1ccc(O)c2c1C[C@H]1C[C@H]3[C@H](N(C)C)C(O)=C(C(N)=O)C(=O)[C@@]3(O)C(O)=C1C2=O [MIN, minocycline] | 0.5 mg/L (≈ 1.09 µM) |  |  | 0.5 mg/L (≈ 1.09 µM) | 0.5 mg/L (≈ 1.09 µM) | 0.5 mg/L (≈ 1.09 µM) | 0.5 mg/L (≈ 1.09 µM) |  | 0.5 mg/L (≈ 1.09 µM) |  |  |  |  | 
5 | C/C(=C\C(=O)OCCCCCCCCC(=O)O)C[C@@H]1OC[C@H](C[C@@H]2O[C@H]2[C@@H](C)[C@H](C)O)[C@@H](O)[C@H]1O [MUP, mupirocin] | 0.125 mg/L (≈ 0.25 µM) |  |  | 0.03 mg/L (≈ 0.0599 µM) | 0.03 mg/L (≈ 0.0599 µM) | 0.03 mg/L (≈ 0.0599 µM) | 0.125 mg/L (≈ 0.25 µM) |  | 0.125 mg/L (≈ 0.25 µM) |  |  |  |  | 
6 | CCOc1ccc2ccccc2c1C(=O)N[C@@H]1C(=O)N2[C@@H]1SC(C)(C)[C@@H]2C(=O)O [NAF, nafcillin] | 8 mg/L (≈ 19.3 µM) | 2 fold | 8 mg/L (≈ 19.3 µM) | 0.25 mg/L (≈ 0.603 µM) | 0.25 mg/L (≈ 0.603 µM) | > 128 mg/L | 4 mg/L (≈ 9.65 µM) |  | 8 mg/L (≈ 19.3 µM) |  |  |  |  | 
7 | CC1(C)S[C@@H]2[C@H](NC(=O)[C@H](N)c3ccccc3)C(=O)N2[C@H]1C(=O)O [ampicillin] |  |  |  |  |  |  |  |  |  | reduced the protein’s ability to bind the fluorescent substrate | did not reproducibly demonstrate BOCILLIN FL binding inhibition | limited BOCILLIN FL binding |  | 
8 | CO[C@@]1(NC(=O)Cc2cccs2)C(=O)N2C(C(=O)O)=C(COC(N)=O)CS[C@@H]21 [cefoxitin] |  |  |  |  |  |  |  |  |  | reduced the protein’s ability to bind the fluorescent substrate | did not reproducibly demonstrate BOCILLIN FL binding inhibition |  |  | 
9 | NC[C@H]1O[C@H](O[C@H]2[C@H](O)[C@@H](O[C@H]3O[C@H](CO)[C@@H](O)[C@H](N)[C@H]3O)[C@H](N)C[C@@H]2N)[C@H](O)[C@@H](O)[C@@H]1O [kanamycin] |  |  |  |  |  |  |  |  |  | did not significantly impact |  | had no impact on BOCILLIN FL binding | no inhibitory effect | 
10 | colistin |  |  | 128 mg/L |  |  |  |  |  |  |  |  |  |  | 128 mg/L
